Data published in ChEMBL document CHEMBL6121057, “Discovery of an Orally Bioavailable STING Inhibitor with In Vivo Anti-Inflammatory Activity in Mice with STING-Mediated Inflammation” (J Med Chem, 2025).

Assays:
[1] = Metabolic stability in human liver microsomes assessed as half life; format: ADME, Microsome
[2] = Metabolic stability in human liver microsomes assessed as intrinsic clearance; format: ADME, Microsome; details: read-out: CLH
[3] = Half life in Sprague-Dawley rat at 2 mg/kg, iv measured upto 60 mins by LC-MS/MS analysis; format: ADME, organism-based; details: in vivo
[4] = Tmax in Sprague-Dawley rat at 2 mg/kg, iv measured […] by LC-MS/MS analysis; format: ADME, organism-based; details: in vivo
[5] = Cmax in Sprague-Dawley rat at 2 mg/kg, iv measured […] by LC-MS/MS analysis; format: ADME, organism-based; details: in vivo
[6] = AUC (0 to t) in Sprague-Dawley rat at 2 mg/kg, iv measured upto 60 mins by LC-MS/MS analysis; format: ADME, organism-based; details: in vivo
[7] = Tmax in Sprague-Dawley rat at 10 mg/kg, po measured […] by LC-MS/MS analysis; format: ADME, organism-based; details: in vivo
[8] = Cmax in Sprague-Dawley rat at 10 mg/kg, po measured […] by LC-MS/MS analysis; format: ADME, organism-based; details: in vivo
[9] = AUC (0 to t) in Sprague-Dawley rat at 10 mg/kg, po measured upto 60 mins by LC-MS/MS analysis; format: ADME, organism-based; details: in vivo
[10] = Oral bioavailability in Sprague-Dawley rat at 10 mg/kg measured […] by LC-MS/MS analysis; format: ADME, organism-based; details: in vivo

half-life [1] [min] | CLint scaled [2] [mL/min/kg] | half-life [3] [min] | Tmax [4] [min] | Cmax [5] [ng/mL] | AUC(0-t) at 1 h [6] [ng·h/mL] | Tmax [7] [min] | Cmax [8] [ng/mL] | AUC(0-t) at 1 h [9] [ng·h/mL] | bioavailability [10] [%] | SMILES
16.3 | 76.3 |  |  |  |  |  |  |  |  | CC(C)(C)c1ccc(NC(=O)Nc2c[nH]c3ccc(F)cc23)cc1
6.2 | 143 | 12 | 6 | 1320 | 387 | 48 | 8 | 12 | 0.6 | CCc1ccc(NC(=O)Nc2c[nH]c3ccccc23)cc1
139 | 6.4 | 48 | 6 | 842 | 536 | 252 | 37 | 125 | 4.6 | O=C(Nc1ccc(C(F)(F)F)cc1)Nc1c[nH]c2ccc(Cl)cc12
16.9 | 53 |  |  |  |  |  |  |  |  | CCc1ccc(NC(=O)Nc2c[nH]c3ccc(F)cc23)cc1
